One test relates to Abl/Abl (T315I)(h). As to the kind of experiment: Kinase inhibition activity test, isotope labeling: Abl. The settings on record: test compound at a concentration of 10 μM. It counts as biochemical, human. The procedure: (§1) The purpose of this experiment was to test the inhibitory activity of the compound of the invention for in vitro kinase with the isotope labeling method (the γ phosphate group on ATP was labeled). In this experiment, the in vitro activity inhibition of such kinases as FLT3, VEGFR2, FLT1, FLT4, RET, c-RAF, B-RAF, c-KIT, PDGFα, PDGFβ, FGFR2, FGFR1, EphA2, EphB2, SRC, ABL, ALK and Met was tested respectively. Staurosporine was reference molecule (or referred to as positive control). The kinase inhibition activity of the test compound was expressed by half-inhibitory concentration (IC50) or the kinase activity inhibition rate of the test compound at a concentration of 10 μM. The IC50 value could be obtained by calculating the kinase activity inhibition rate of the test compound at different concentrations.
(§2) 20 mM 3-(N-morpholinyl)propanesulfonic acid (MOPS); 1 mM ethylenediaminetetraacetic acid (EDTA), 0.01% Brij 35 (Brij-35), 5% glycerol, 0.1% mercaptoethanol, 1 mg/mL bovine serum albumin (BSA), 10 mM manganous dichloride solution (MnCl2), 0.1 mg/mL glutamic acid/tyrosine (4:1) polypeptide (poly(Glu, Tyr)4:1), 50 μM EAIYAAPFAKKK (substrate of FLT3), 0.33 mg/mL myelin basic protein (substrate of VEGFR2), 250 μM KKKSPGEYVNIEFG (substrate of FLT1(h)), 500 μM GGEEEEYFELVKKKK (substrate of FLT4(h)), 250 μM KKKSPGEYVNIEFG (substrate of RET), 0.66 mg/mL myelin basic protein (substrate of C-RAF), 250 μM GGMEDIYFEFMGGKKK (substrate of c-Kit), 250 μM GGMEDIYFEFMGGKKK (substrate of PDGFα), 250 μM KKKSPGEYVNIEFG (substrate of FGFR1), […] GGEEEEYFELVKKKK (substrate of SRC), 50 μM EAIYAAPFAKKK (substrate of ABL), 250 μM KKKSPGEYVNIEFG (substrate of ALK), 250 μM KKKSPGEYVNIEFG (substrate of Met(h)), 10 mM magnesium acetate and γ-^33 P-ATP solution, stop buffer (3% phosphate buffer), washing buffer (75 mM phosphate solution), methanol, Filtermat A membrane, FLT3, VEGFR2, FLT3, VEGFR2, FLT1, FLT4, RET, c-RAF, B-RAF, c-KIT, PDGFRα, PDGFRβ, FGFR2, FGFR1, EphA2, EphB2, SRC, ABL, ALK, Met and other kinases, and the test compounds.
(§3) Buffers (8 mM MOPS with pH value of 7.0, 0.2 mM EDTA and 10 mM MnCl2), (5-10 mU) kinases to be tested (FLT3, VEGFR2, FLT1, FLT4, RET, c-RAF, B-RAF, c-KIT, PDGFRα, PDGFRβ, FGFR2, FGFR1, EphA2, EphB2, SRC, ABL, ALK and Met), substrates of kinases to be tested (refer to experimental materials), 10 mM magnesium acetate and γ-^33 P-ATP solution, and test compounds at different concentrations were added to a reaction tube orderly. […] Reaction was terminated with 5 μL 3% phosphate buffer finally, and 10 μL reaction solution was titrated to the Filtermat A membrane; solution was washed for 3 times with 75 mM phosphate solution with each time lasting 5 minutes, and then washed once with methanol. Finally, the Filtermat A membrane was dried, and scintillation counting was performed on the membrane, with scintillation count reflecting the phosphorylation degree of the substrates, so that the activity inhibition of kinase could be characterized.

Another test deals with T1, FLT3 (Homo sapiens, UniProt P36888).
T1 sequence (P36888 27-993): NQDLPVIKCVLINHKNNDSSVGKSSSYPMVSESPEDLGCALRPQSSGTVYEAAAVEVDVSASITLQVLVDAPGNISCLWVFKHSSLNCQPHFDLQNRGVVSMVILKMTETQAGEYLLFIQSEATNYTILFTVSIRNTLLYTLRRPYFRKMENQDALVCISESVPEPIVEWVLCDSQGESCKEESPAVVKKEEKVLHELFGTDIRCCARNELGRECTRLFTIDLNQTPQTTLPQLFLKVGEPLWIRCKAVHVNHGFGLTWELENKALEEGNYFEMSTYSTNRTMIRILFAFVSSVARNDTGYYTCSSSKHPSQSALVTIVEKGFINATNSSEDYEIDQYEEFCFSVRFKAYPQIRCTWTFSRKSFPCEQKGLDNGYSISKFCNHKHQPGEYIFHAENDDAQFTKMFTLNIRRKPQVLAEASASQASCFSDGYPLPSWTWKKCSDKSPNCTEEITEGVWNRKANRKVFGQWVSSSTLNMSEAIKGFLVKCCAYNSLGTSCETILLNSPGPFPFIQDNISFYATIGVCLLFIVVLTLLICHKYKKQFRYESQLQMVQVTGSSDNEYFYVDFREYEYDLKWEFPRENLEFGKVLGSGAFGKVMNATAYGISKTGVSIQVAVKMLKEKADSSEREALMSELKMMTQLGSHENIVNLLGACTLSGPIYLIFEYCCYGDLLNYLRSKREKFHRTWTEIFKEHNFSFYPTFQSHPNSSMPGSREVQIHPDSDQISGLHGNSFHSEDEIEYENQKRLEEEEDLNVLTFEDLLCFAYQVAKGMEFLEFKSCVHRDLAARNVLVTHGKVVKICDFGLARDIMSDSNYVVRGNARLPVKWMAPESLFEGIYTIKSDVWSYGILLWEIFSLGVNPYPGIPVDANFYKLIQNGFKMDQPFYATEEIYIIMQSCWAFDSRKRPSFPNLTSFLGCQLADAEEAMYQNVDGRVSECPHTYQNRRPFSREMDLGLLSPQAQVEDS
As to the kind of experiment: Kinase inhibition activity test, isotope labeling (γ-33P-ATP): FLT3. It counts as biochemical. The settings on record: for IC50: ATP 200 μM, read-out: FLT3 IC50 value (inhibitory activity value); for Activity inhibition rate Flt3 (h) / inhibition at 10 µM: test compound at a concentration of 10 μM; for inhibition at 10 µM: read-out: Activity inhibition rate Flt3 (h). How it is done:
as §1, §2, §3

What is called IC50 is the concentration needed to halve the response being measured. In the case of “1-(4-((1H-pyrazolopyrimidine-4-yl)oxy)-3-fluorophenyl)-3-(3-trifluoromethoxy)phenyl)urea [4a-8]”, the “Activity inhibition rate Abl/Abl (T315I)(h)” value with Abl/Abl (T315I)(h) came out at 34%. In addition, at FLT3, the 50% inhibitory concentration (IC50) stood at 38 nM and the “Activity inhibition rate Flt3 (h)” value is recorded as 100%.
As to “1-(4-((1H-pyrazolopyrimidine-4-yl)oxy)phenyl)-3-(methylcyclohexyl)urea [4a-20]”, the “Activity inhibition rate Abl/Abl (T315I)(h)” value in the test on Abl/Abl (T315I)(h) stood at 19%. The “Activity inhibition rate Flt3 (h)” value at FLT3 is given as 66%.
In general, inhibition refers to the drop in the measured response relative to a control, in per cent. Regarding `O=C(Nc1ccc(Oc2ncnc3[nH]ncc23)cc1)Nc1ccc(C(F)(F)F)cc1` [4a-1], the “Activity inhibition rate Abl/Abl (T315I)(h)” value in the test on Abl/Abl (T315I)(h) amounted to 17%. Further, on FLT3, the half-maximal inhibitory concentration (IC50) was 27 nM and the inhibition at 10 µM came to 100%.
On to `O=C(Nc1ccc(Oc2ncnc3[nH]ncc23)cc1)Nc1ccc(Cl)c(C(F)(F)F)c1` [4a-2], for which the “Activity inhibition rate Abl/Abl (T315I)(h)” value with Abl/Abl (T315I)(h) is listed as 86%. Besides, on FLT3, the IC50 amounted to 39 nM and the “Activity inhibition rate Flt3 (h)” value amounted to 100%.
As to `O=C(Nc1ccc(Oc2ncnc3[nH]ncc23)cc1)Nc1cccc(C(F)(F)F)c1` [4a-6], the “Activity inhibition rate Abl/Abl (T315I)(h)” value in the test on Abl/Abl (T315I)(h) is given as 79%. At FLT3, the half-inhibitory concentration (IC50) is 9 nM and the inhibition at 10 µM worked out at 100%.
With `CC(C)c1cccc(NC(=O)Nc2ccc(Oc3ncnc4[nH]ncc34)c(F)c2)c1` [4a-7, 1-(4-((1H-pyrazolopyrimidine-4-yl)oxy)-3-fluorophenyl)-3-(3-isopropylphenyl)urea], in the test on Abl/Abl (T315I)(h), the “Activity inhibition rate Abl/Abl (T315I)(h)” value came out at 60%. In addition, on FLT3, the IC50 was determined as 36 nM and the “Activity inhibition rate Flt3 (h)” value amounted to 100%.
With `O=C(Nc1ccc(C(F)(F)F)cc1)Nc1ccc(Oc2ncnc3[nH]ncc23)c(F)c1` [4a-9, 1-(4-((1H-pyrazolopyrimidine-4-yl)oxy)-3-fluorophenyl)-3-(4-(trifluoromethyl)phenyl)urea], the “Activity inhibition rate Abl/Abl (T315I)(h)” value in the test on Abl/Abl (T315I)(h) was 15%. In addition, on FLT3, the half-maximal inhibitory concentration (IC50) came out at 18 nM and the “Activity inhibition rate Flt3 (h)” value was found to be 100%.
Regarding `O=C(Nc1ccc(Oc2ncnc3[nH]ncc23)c(F)c1)Nc1ccc(Cl)c(C(F)(F)F)c1` [4a-10, 1-(4-((1H-pyrazolopyrimidine-4-yl)oxy)-3-fluorophenyl)-3-(4-chloro-3-(trifluoromethyl)phenyl)urea], in the test with Abl/Abl (T315I)(h), the “Activity inhibition rate Abl/Abl (T315I)(h)” value was found to be 67%. Moreover, at FLT3, the IC50 stood at 25 nM and the “Activity inhibition rate Flt3 (h)” value amounted to 100%.
Turning to `O=C(Nc1ccc(Oc2ncnc3[nH]ncc23)cc1)Nc1cc(C(F)(F)F)cc(C(F)(F)F)c1` [4a-12, 1-(4-((1H-pyrazolopyrimidine-4-yl)oxy)phenyl)-3-(3,5-bis(trifluoromethyl)phenyl)urea], the “Activity inhibition rate Abl/Abl (T315I)(h)” value in the test with Abl/Abl (T315I)(h) was 78%. Also, at FLT3, the IC50 worked out at 61 nM and the “Activity inhibition rate Flt3 (h)” value worked out at 100%.
For `O=C(Nc1ccc(Oc2ncnc3[nH]ncc23)cc1)Nc1ccc(C(F)(F)F)cc1Cl` [4a-13], the “Activity inhibition rate Abl/Abl (T315I)(h)” value in the test on Abl/Abl (T315I)(h) is given as 27%. Besides, on FLT3, the IC50 was found to be 24 nM and the “Activity inhibition rate Flt3 (h)” value was 100%.
Turning to `O=C(Nc1ccccc1)Nc1ccc(Oc2ncnc3[nH]ncc23)cc1` [4a-15, 1-(4-((1H-pyrazolopyrimidine-4-yl)oxy)phenyl)-3-phenylurea], the “Activity inhibition rate Abl/Abl (T315I)(h)” value with Abl/Abl (T315I)(h) was 99%. Besides, at FLT3, the 50% inhibitory concentration (IC50) came to 89 nM and the “Activity inhibition rate Flt3 (h)” value was 100%.
For `O=C(Nc1ccc(Oc2ncnc3[nH]ncc23)cc1)Nc1ccc(N2CCOCC2)cc1` [4a-16, 1-(4-((1H-pyrazolopyrimidine-4-yl)oxy)phenyl)-3-(4-morpholinylphenyl)urea], the inhibition at 10 µM on FLT3 stood at 76%.
For `C[C@H](NC(=O)Nc1ccc(Oc2ncnc3[nH]ncc23)cc1)c1ccccc1` [4a-18, (S)-1-(4-((1H-pyrazolopyrimidine-4-yl)oxy)phenyl)-3-(1-phenethyl)urea], the “Activity inhibition rate Abl/Abl (T315I)(h)” value in the test with Abl/Abl (T315I)(h) turned out to be 45%. On FLT3, the “Activity inhibition rate Flt3 (h)” value is on record as 81%.
Consider `C[C@@H](NC(=O)Nc1ccc(Oc2ncnc3[nH]ncc23)cc1)c1ccccc1` [4a-19, (R)-1-(4-((1H-pyrazolopyrimidine-4-yl)oxy)phenyl)-3-(1-phenethyl)urea], for which the “Activity inhibition rate Abl/Abl (T315I)(h)” value with Abl/Abl (T315I)(h) is given as 21%. For the same compound, the “Activity inhibition rate Flt3 (h)” value on FLT3 was determined as 73%.
Take `CC(C)(C)c1cc(NC(=O)Nc2ccc(Oc3ncnc4[nH]ncc34)cc2)n(-c2ccccc2)n1` [4a-24]: in the test with Abl/Abl (T315I)(h), the “Activity inhibition rate Abl/Abl (T315I)(h)” value is given as greater than 50%. At FLT3, the concentration for half-maximal inhibition (IC50) turned out to be 17 nM and the “Activity inhibition rate Flt3 (h)” value was 100%.
Take `O=C(Nc1cccc(Nc2ncnc3[nH]ncc23)c1)Nc1ccc(F)c(Cl)c1` [4b-1]: on FLT3, the inhibition at 10 µM was 30%.
Consider `C[C@@H](NC(=O)Nc1ccc(Nc2ncnc3[nH]ncc23)cc1)c1ccccc1` [4b-2, (R)-1-(4-(1H-pyrazolopyrimidine-4-amido)phenyl)-3-(1-phenethyl)urea], for which the “Activity inhibition rate Flt3 (h)” value on FLT3 (10 µM) was 0%.
Regarding `COc1cccc(NC(=O)Nc2ccc(Nc3ncnc4[nH]ncc34)cc2)c1` [4b-3], at FLT3, the inhibition at 10 µM was determined as 72%.
Consider `C[C@H](NC(=O)Nc1ccc(Nc2ncnc3[nH]ncc23)cc1)c1ccccc1` [4b-4], for which the “Activity inhibition rate Flt3 (h)” value at FLT3 (10 µM) worked out at 59%.
As to `O=C(Nc1ccc(NC(=O)N2C=NC=C3NNC=C32)cc1)Nc1ccc(Cl)c(C(F)(F)F)c1` [4b-5, 1-(4-(1H-pyrazolopyrimidine-4-amido)phenyl)-3-(4-chloro-3-(trifluoromethyl)phenyl)urea], the inhibition at 10 µM at FLT3 is 95%.
Still for that read-out and setting: for `COc1ccc(NC(=O)Nc2ccc(NC(=O)N3C=NC=C4NNC=C43)cc2)cc1` [4b-6, 1-(4-(1H-pyrazolopyrimidine-4-amido)phenyl)-3-(4-methoxyphenyl)urea] the value was 81%; for `Cc1cc(C)c(NC(=O)Nc2ccc(NC(=O)N3C=NC=C4NNC=C43)cc2)c(C)c1` [4b-7, 1-(4-(1H-pyrazolopyrimidine-4-amido)phenyl)-3-(2,4,6-trimethylphenyl)urea], 91%.
On to `CC(C)n1ncc2c(Oc3ccc(NC(=O)Nc4cc(C(C)(C)C)on4)cc3)ncnc21` [5a-4, 1-(5-tert-butylisoxazol-3-yl)-3-(4-(1-isopropyl-(1H-pyrazolopyrimidine-4-yl)oxy)phenyl)urea], for which, at FLT3, the inhibition at 10 µM was greater than 90%.

The values above are taken from patent US9828375B2, “4-position substituted pyrazolopyrimidine derivative, and use thereof in drug preparation” (Guangxi Wuzhou Pharmaceuticals (Group) Co., Ltd., priority 2012, dated 2017).
